Test results reported in patent publication US5821353A, “DNA encoding 1,3 beta-D glucan synthase subunits” (Merck & Co., Inc., priority 1996, dated 1998).

Key:
[1] = test system: S. cerevisiae R560-1 / R560-1C (fks1-2); experiment: liquid MIC assay of resistant clone; assay type: cell-based, Saccharomyces cerevisiae
Method: Strain W303-1A was transformed by the spheroplast method (MYG) with yeast genomic libraries obtained from D. Botstein (1982. Cell, 28:145-154). Transformants selected on uracil dropout medium were pooled and stored at -80° C. in 20% glycerol. After determining the titer (colony forming units(CFU)/ml), aliquots of the stocks were spread at .congruent.5×10^3 CFU per plate onto uracil dropout medium containing the semisynthetic echinocandin L-733,560 at 0.5 mcg/ml or 1.25 mcg/ml. This concentration of L-733,560 is sufficient to select for resistant clones. Twenty-seven drug resistant colonies were isolated. […] Briefly, L-733,560 was serially diluted across the wells of a sterile microtiter plate such that the concentration in each row ranged from 16 to 0.03 mcg/ml in 2-fold increments after an equal volume of a cell suspension in liquid uracil dropout medium was added. After 24 h at 30° C., plates were read in a spectrophotometer at a wavelength of 600 nm, and the percent of control growth in each well (relative to a no-drug control well) was calculated. […]
Because this strain was isolated as a transfornant from the genomic library, it was expected that resistance would be due to the gene residing on the plasmid contained in R560-1. […] R560-1C was mated to the wild type strain W303-1B, sporulated, dissected, and the sensitivity to L-733,560 quantitated by liquid MIC assay. […]

[2] = test system: S. cerevisiae R560-1C; experiment: secondary screen, zone size on agar; assay type: cell-based, Saccharomyces cerevisiae; conditions: 20 ng FK506, 10 mcg CsA, 10 mcg L733,560, 20 mcg aculeacin, 20 mcg papulacandin
Method: (§1) For positively identifying glucan synthase inhibitors, screening with strain R560-1C and its parent W303-1A was instituted in a manner identical to that described for calcineurin inhibitors. Complete loss of a zone, or marked reduction in size, on R560-1C versus W303-1A indicates a glucan synthase inhibitor. No zones are seen with calcineurin inhibitors using this pair of strains.
(§2) Each strain is grown at 28°-30° C. in YPAD/10 mM CaCl2 medium with shaking at 220 rpm (to mid or late log phase). The cultures are diluted 1:10 with water, and the OD values of the dilutions are measured at 600 nm (against a blank of YPAD/10 mM CaCl2 similarly diluted 1:10 in water). The OD value is multiplied by 10 to estimate the OD of the culture. Portions (100 ml) of YPAD/10 mM CaCl2 medium containing 1.5% agar, equilibrated at 45° C. in a water bath, are seeded with culture such that the final cell density in the agar would have an OD value of 0.015 (i.e., 3×10^6 cfu/ml; a sample calculation is provided below). The seeded agar is poured into 500 cm^2 Nunc plates. Once the agar plates have solidified, 10 mcL aliquots of samples containing test compounds, such as fermentation extracts, are dissolved in water, 100% methanol or ethanol, or up to 50% DMSO and are placed on each member of the two-plate set in 11 by 8 arrays.
(§3) The plates are incubated for 48 h at 28°-30° C. Diameters of the zones are read to the outermost edge and recorded in mm. The clarity of the zone is reported as clear (no designation), hazy (h), or very hazy (vh). Very hazy zones are best seen by viewing the plate under an elevated light placed between the assay dish and a dark wall.

[3] = test system: S. cerevisiae W303-1A; experiment: secondary screen, zone size on agar; assay type: cell-based, Saccharomyces cerevisiae; conditions: 20 ng FK506, 10 mcg CsA, 10 mcg L733,560, 20 mcg aculeacin, 20 mcg papulacandin
Method: as §1, §2, §3

[4] = test system: S. cerevisiae FKS1 pcr1 (fks2-1): MY2257, MY2258; experiment: MIC assay; assay type: cell-based, Saccharomyces cerevisiae; conditions: less than 10% growth, 42 hours
Method: (§4) The sensitivities of pcr1(fks2-1) fks1-1 and pcr1(fks2-1) FKS1 strains to L-733,560, L-636,947 (Aculeacin), and L-687,781 (Dihydropapulocandin) were determined in MIC assays. Briefly, strains were grown to stationary phase in 5.0 ml of liquid YPAD medium. MY2256 precultures were grown in liquid YPAD10Ca. MIC assays were performed in flat well microtiter plates in triplicate. Each well of the microtiter plate was filled with 100 mcL of YPAD medium. To the first well, 100 mcL of a 4× solution of drug in YPAD medium was added. To serve as a control, a stock solution of […] of YPAD was made. 100 mcL of this solution was added to the initial well for strains grown in the presence of solvent but the absence of drug. Two-fold serial dilutions of the drug were performed down the plate.
(§5) Cultures were diluted to 5×10^5 cells/ml in YPAD (1 OD660 =3.3×10^7 cells/ml). 100 mcL of diluted culture was added to each well, resuspended, and incubated at 28° C. After 42 hours, cultures were resuspended and cells densities measured in an SLT Laboratories 340 ATTC microtiter plate reader. The MICs concentrations presented in the table below represent the concentrations of drug that result in less than 10% growth of the strain grown in the absence of drug.

[5] = test system: S. cerevisiae fks1-1 PCR1 YFK0688-14B; experiment: MIC assay; assay type: cell-based, Saccharomyces cerevisiae; conditions: less than 10% growth of no-drug control, 42 hours, 28° C.
Method: as §4, §5

[6] = test system: S. cerevisiae fks1-1 pcr1 (fks2-1): MY2256, YFK0996-11B, MY2259, MY2260; experiment: MIC assay; assay type: cell-based, Saccharomyces cerevisiae; conditions: less than 10% growth, 42 hours
Method: as §4, §5

[7] = test system: S. cerevisiae wild type YFK0005; experiment: MIC assay; assay type: cell-based, Saccharomyces cerevisiae; conditions: less than 10% growth of no-drug control, 42 hours, 28° C.
Method: as §4, §5

[8] = test system: Pneumocystis carinii; conditions: rat model of P. carinii pneumonia; Schmatz et al. 1990; cited from earlier work

dihydropapulacandin [L-687,781]
resistance phenotype in liquid MIC assay [1]: resistance phenotype
Secondary Screen Zone size (mm) [2]: 14-16 mm
Secondary Screen Zone size (mm) [3]: 15-18 mm
MIC [4]: > 40 µg/mL
MIC [5]: 10 µg/mL
MIC [6]: > 40 µg/mL
MIC [7]: 40 µg/mL
reducing the number of cysts in the lungs of infected rats [8]: effective
